# Legend:
# [1] = system: 8.5 mM potassium-induced epileptiform activity in hippocampal slices; experiment: 8.5 mM K+ induced epileptiform activity in hippocampal slices in vitro; assay type: cell-based, rat; conditions: for decrease of averaged power of epileptiform activity: bumetanide 10 μM
# From the text: In this example, the effects of phenobarbital on recurrent interictal and ictal-like epileptiform activity in the hippocampal slices in vitro from P7-12 rats were studied. Interictal and ictal-like epileptiform activity are typical parameters studied when analyzing seizure activity in control and treated subjects. Phenobarbital exerts its pharmacological effects by allosteric activation of the GABAA receptor, increasing the duration of chloride ion channel opening, without affecting the frequency of opening or channel conductance. Simultaneous multi-site extracellular field potential records were performed in the CA3 pyramidal cell layer. To induce progressive neuronal firing, a bath application of 8.5 mM K+ was applied to the sections that developed to recurrent interictal and ictal-like epileptiform activities (FIG. 2A-2D). […] The power of extracellular field potential during 8.5 mM K+ (potassium) induced epileptiform activity in 0.1-1000 Hz frequency band, that include both gamma and fast ripple oscillations (FIG. 2A-2D).
# In one exemplary method, experimental procedures were carried out on hippocampal slices of postnatal days 5 (P5) to P12 male Wistar rats. Animals were anaesthetized and decapitated and hippocampal slices were prepared by known methods. For example, hippocampal transverse slices were cut using Leica VT-100E vibratome (Leica Microsystems Nussloch GmbH, Germany) and kept in oxygenated aCSF at room temperature at least 1 hr before use. Hippocampal slices posterior to the midtemporal (caudal) part of the hippocampus (Paxinos and Watson, 1986) were used in the study.
# In one example, electrophysiological recordings are gathered from individual slices and subsequently transferred to a conventional submerged-type chamber and continuously superfused with, for example, oxygenated aCSF. Whole-cell recordings were generated. Patch electrodes were used, made by known methods. For whole-cell recording in voltage-clamp mode pipettes were filled with a buffered solution.
# (§1) From the example outlined above, extracellular field potentials were recorded and microelectrodes known in the art were used for simultaneous recordings of multiple unit activity (e.g. MUA; 500 Hz high-pass filter), population field activity in EEG band (1-100 Hz), and fast ripple oscillations (200-600 Hz).).
# In one experimental example, bumetanide was tested for suppression of a 8.5 mM potassium-induced epileptiform activity in hippocampal slices from P7-9 and PI0-12 rats. […] Averaged power of epileptiform activity was decreased by 71±2.1% (n=9, p=1.57E-12) in P7-9 rat hippocampal slices and by 41.9±1.5% (n=6, p=2.13E-11) at P10-P12 (FIG. 3C).
# In another aspect of this example, pharmaceutical compositions of the present invention may be tested for effects on the GABAA receptor using for example a GABAA-R antagonist before, during or after treatment with the pharmaceutical composition. In one example, GABAA receptor antagonists prevented the effect of bumetanide on power of epileptiform activity in the hippocampal slices from neonatal rats (FIGS. 3B and 3D). […] Here, an inhibition of synchronous network activity by bumetanide treatment in the perinatal hippocampal slices in this in vitro experiment was observed and these affects were partially reversed after treatment with bicuculline.
# [2] = system: spontaneous network activity in hippocampal sections; experiment: Spontaneous network activity in P4-8 hippocampal sections (whole-cell and extracellular field recordings); assay type: cell-based, rat
# Protocol: In another exemplary in vitro method, simultaneous whole-cell voltage-clamp recordings of CA3 pyramidal cells and extracellular field potential recordings in CA3 pyramidal cell layer were performed to analyze the effects of one of the pharmaceutical compositions of the present invention, bumetanide, on spontaneous network activity in the postnatal (P)4-8 hippocampal sections. Spontaneous neuronal network activity is characterized by large polysynaptic currents mediated by activation of GABAA-receptors and synchronous recurrent population bursts, associated with a barrage of high frequency action potentials from multiple cells (FIG. 1C). […] Synchronous network activity reappeared 10-15 min after removal of bumetanide by washing.
# In one exemplary method, experimental procedures were carried out on hippocampal slices of postnatal days 5 (P5) to P12 male Wistar rats. Animals were anaesthetized and decapitated and hippocampal slices were prepared by known methods. […]
# as §1
smiles,measurement,setting,value
"CCCCNc1cc(C(=O)O)cc(S(N)(=O)=O)c1Oc1ccccc1 [bumetanide, 3-(aminosulfonyl)-5-(butylamino)-4-phenoxybenzoic acid]",decrease of averaged power of epileptiform activity,"[1]; P7-9 rat hippocampal slices, n=9",71±2.1%
same,decrease of averaged power of epileptiform activity,"[1]; P10-P12 rat hippocampal slices, n=6",41.9±1.5%
same,increase of IED frequency,"[1]; bumetanide 10 μM in the presence of bicuculline 10 μM, P7-9 slices, n=6, p=0.008",22.8 ± 6.4%
same,decrease of IED length,"[1]; bumetanide 10 μM in the presence of bicuculline 10 μM, P7-9 slices, p=0.8",2.2±8%
same,averaged power of epileptiform discharges,"[1]; bumetanide 10 μM in the presence of bicuculline 10 μM, p=0.35",did not change
same,effect on epileptiform activity,"[1]; hippocampal slices from P7-9 rats, bath application phenobarbital 100 μM (n=6) or bumetanide 10 μM (n=10)",strongly suppressed interictal and ictal-like epileptiform activity
same,effect on epileptiform activity,"[1]; hippocampal slices from P10-12 rats, bath application phenobarbital 100 μM (n=7) or bumetanide 10 μM (n=6)",depressed ictal-like epileptiform activity
same,time until synchronous network activity reappeared after removal by washing,[2]; after bumetanide 10 uM,10 to 15 min
same,synchronous bursts of action potentials,"[2]; bath application 10 uM, P4-8 hippocampal sections, n=10",rapidly depressed

# From patent publication US20070043034A1, “Chlorine Ion Uptake Modulators and Uses Thereof” (priority 2005, published 2007)
